Data on two molecules can be found in patent publication US11814356B1, “Salt of cabozantinib” (Apotex Inc., priority 2023, dated 2023).

The conditions of data set [1]: pH-dependent; at a pH>3; cited from earlier work.
For data set [2] the following is noted: cited from earlier work.
Data set [3] is described as follows: PXRD form stability of uncapped samples in a stability chamber. The data set is classed as physicochemical. As for the experimental part: Cabozantinib acesulfamate Form APO-I can be characterized by a PXRD diffractogram comprising, among other peaks, characteristic peaks, expressed in degrees 2θ (±0.2°), at 9.5°, 11.2° and 19.7°. Preferably, the PXRD diffractogram further comprises at least three peaks, expressed in degrees 2θ (±0.2°), selected from the group consisting of 9.1°, 10.2°, 12.7°, 15.9°, 17.4°, and 18.1°. More preferably, the PXRD diffractogram further comprises peaks, expressed in degrees 2θ (±0.2°), at 9.1°, 10.2°, 12.7°, 15.9°, 17.4°, and 18.1°.
PXRD diffractograms were recorded on a Bruker D8 Discover powder X-ray diffractometer (Bruker AXS LLC, Karlsruhe, Germany). The sample holder was oscillated along x and y axes during the measurement. The generator was a Incoatec Microfocus Source (IμS) Cu tube (λ=1.54060 Å) with a voltage of 50 kV and current of 1.00 mA, using a divergence slit of 0.1 mm and collimator of 2.0 mm. For each sample, one frame was collected using a still scan with a PILATUS3 R 100K-A detector at the distance of 294.2 mm from the sample. Raw data were evaluated using the program DIFFRAC.EVA (Bruker AXS LLC, Karlsruhe, Germany).

Turning to `COc1cc2nccc(Oc3ccc(NC(=O)C4(C(=O)Nc5ccc(F)cc5)CC4)cc3)c2cc1OC` [cabozantinib, N-(4-(6,7-dimethoxyquinolin-4-yloxy)phenyl)-N′-(4-fluorophenyl)cyclopropane-1,1-dicarboxamide], the aqueous solubility result in data set [1] was “very low solubility”. The permeability result in data set [2] was “high permeability”.

Take `CC1=CC(=O)NS(=O)(=O)O1.COc1cc2nccc(Oc3ccc(NC(=O)C4(C(=O)Nc5ccc(F)cc5)CC4)cc3)c2cc1OC` [cabozantinib acesulfamate Form APO-I, Cabozantinib Acesulfamate Form APO-I]: in data set [3] (high temperature and high humidity), the form stability entry is listed as “form stability”. The “change in the crystalline form (PXRD)” value in data set [3] (uncapped samples, 40° C./75% RH stability chamber, at least 4 weeks) is recorded as “no change in the crystalline form occurred”.
